Reference: US20260262643A1, “HERBICIDAL BENZOXAZINES” (FMC CORPORATION, priority 2022, published 2026)

Experiments:
[1] = system: oat, wild; assay: Test C postemergence; type: in vivo, Avena fatua; details: 10 days
In short: (§1)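 Visual injury score, 0–100 (100 = complete control), taken 10 days after treatment relative to untreated controls. Pre: directed spray onto soil over sown seeds. Post: foliar spray at one- to two-leaf stage, 2–10 cm. Solvent/surfactant formulation; loam–sand soil; greenhouse.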

[2] = system: galium; assay: Test C postemergence; type: in vivo, Galium aparine; details: 10 days
In short: as §1

[3] = system: horseweed; assay: Test C postemergence; type: in vivo, Erigeron canadensis; details: 10 days
In short: as §1

[4] = system: pigweed, palmer; assay: Test C preemergence; type: in vivo, Amaranthus palmeri; details: 0 to 100 scale (0 no effect, 100 complete control); for Pigweed, Palmer plant response rating: preemergence
In short: as §1

[5] = system: barnyardgrass; assay: Test C postemergence; type: in vivo, Echinochloa crusgalli; details: 10 days
In short: as §1

[6] = system: pigweed, palmer; assay: Test C postemergence; type: in vivo, Amaranthus palmeri; details: 10 days
In short: as §1

[7] = system: ryegrass, Italian; assay: Test C preemergence; type: in vivo, Lolium multiflorum; details: 0 to 100 scale (0 no effect, 100 complete control); for Ryegrass, Italian plant response rating: preemergence
In short: as §1

[8] = system: soybean; assay: Test C postemergence; type: in vivo, Glycine max; details: 10 days
In short: as §1

[9] = system: corn; assay: Test C postemergence; type: in vivo, Zea mays; details: 10 days
In short: as §1

[10] = system: kochia; assay: Test C postemergence; type: in vivo, Bassia scoparia; details: 10 days
In short: as §1

[11] = system: blackgrass; assay: Test C postemergence; type: in vivo, Alopecurus myosuroides; details: 10 days
In short: as §1

[12] = system: kochia; assay: Test C preemergence; type: in vivo, Bassia scoparia; details: 0 to 100 scale (0 no effect, 100 complete control); for Kochia plant response rating: preemergence
In short: as §1

[13] = system: wheat; assay: Test C preemergence; type: in vivo, Triticum aestivum; details: 0 to 100 scale (0 no effect, 100 complete control); for Wheat plant response rating: preemergence
In short: as §1

[14] = system: ragweed; assay: Test C preemergence; type: in vivo, Ambrosia artemisiifolia; details: 0 to 100 scale (0 no effect, 100 complete control); for Ragweed plant response rating: preemergence
In short: as §1

[15] = system: corn; assay: Test C preemergence; type: in vivo, Zea mays; details: 0 to 100 scale (0 no effect, 100 complete control); for Corn plant response rating: preemergence
In short: as §1

[16] = system: barnyardgrass; assay: Test D flooded paddy test; type: in vivo, Echinochloa crus-galli; details: 250 g ai/ha, applied to paddy water, visual rating after 13 to 14 days, scale 0 to 100 (0 no effect, 100 complete control)
In short: (§2)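 Visual ratings from 0, meaning no effect, to 100, meaning complete control, were assigned against untreated controls 13 to 14 days after compounds were added to the floodwater of pots kept 3 cm deep, with plants at the 2-leaf stage.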

[17] = system: blackgrass; assay: Test C preemergence; type: in vivo, Alopecurus myosuroides; details: 0 to 100 scale (0 no effect, 100 complete control); for Blackgrass plant response rating: preemergence
In short: as §1

[18] = system: green foxtail; assay: Test C preemergence; type: in vivo, Setaria viridis; details: 0 to 100 scale (0 no effect, 100 complete control); for Foxtail, Green plant response rating: preemergence
In short: as §1

[19] = system: ducksalad; assay: Test D flooded paddy test; type: in vivo, Heteranthera limosa; details: 250 g ai/ha, applied to paddy water, visual rating after 13 to 14 days, scale 0 to 100 (0 no effect, 100 complete control)
In short: as §2

[20] = system: green foxtail; assay: Test C postemergence; type: in vivo, Setaria viridis; details: 10 days
In short: as §1

[21] = system: barnyardgrass; assay: Test C preemergence; type: in vivo, Echinochloa crusgalli; details: 0 to 100 scale (0 no effect, 100 complete control); for Barnyardgrass plant response rating: preemergence
In short: as §1

[22] = system: ragweed; assay: Test C postemergence; type: in vivo, Ambrosia artemisiifolia; details: 10 days
In short: as §1

[23] = system: oat, wild; assay: Test C preemergence; type: in vivo, Avena fatua; details: 0 to 100 scale (0 no effect, 100 complete control); for Oat, Wild plant response rating: preemergence
In short: as §1

[24] = system: soybean; assay: Test C preemergence; type: in vivo, Glycine max; details: 0 to 100 scale (0 no effect, 100 complete control); for Soybean plant response rating: preemergence
In short: as §1

[25] = system: wheat; assay: Test C postemergence; type: in vivo, Triticum aestivum; details: 10 days
In short: as §1

[26] = system: ryegrass, Italian; assay: Test C postemergence; type: in vivo, Lolium multiflorum; details: 10 days
In short: as §1

[27] = system: rice; assay: Test D flooded paddy test; type: in vivo, Oryza sativa; details: 250 g ai/ha, applied to paddy water, visual rating after 13 to 14 days, scale 0 to 100 (0 no effect, 100 complete control)
In short: as §2

[28] = system: sedge, umbrella; assay: Test D flooded paddy test; type: in vivo, Cyperus difformis; details: 250 g ai/ha, applied to paddy water, visual rating after 13 to 14 days, scale 0 to 100 (0 no effect, 100 complete control)
In short: as §2

[29] = 125 g ai/ha, postemergence, 0 to 100 scale, 0 no effect, 100 complete control
[30] = Postemergence, 500 g ai/ha, visual 0 to 100 scale (0 no effect, 100 complete control)
[31] = Preemergence, 500 g ai/ha, visual rating after 10 days
[32] = 500 g ai/ha, postemergence, 0 to 100 scale (0 no effect, 100 complete control)

`Cc1c(F)cc(-n2cnc(C(C)C)n2)cc1C(=O)N1C[C@H](C)Oc2c(Cl)cccc21` [Compound 151] was tested, and the “Plant response rating, Oat, Wild” value [1, 29] was 20, the “Plant response rating, Oat, Wild” value [1, 30] was 50 and the “Plant response rating, Galium” value [2, 29] was 100. The “Plant response rating, Galium” value [2, 30] was 100, the “Plant response rating, Horseweed” value [3, 29] was 40 and the “Plant response rating, Horseweed” value [3, 30] was 80. The “Plant response rating, Pigweed, Palmer” value [4, 31] was 100, the “Pigweed, Palmer plant response rating” value ([4]; Test C, 125 g ai/ha) was 100 and the “Plant response rating, Barnyardgrass” value [5, 29] was 70. The “Plant response rating, Barnyardgrass” value [5, 30] was 100, the “Plant response rating, Pigweed, Palmer” value [6, 29] was 90 and the “Plant response rating, Pigweed, Palmer” value [6, 30] was 100. The “Plant response rating, Ryegrass, Italian” value [7, 31] was 90, the “Ryegrass, Italian plant response rating” value ([7]; Test C, 125 g ai/ha) was 80 and the “Plant response rating, Soybean” value [8, 29] was 100. For the same compound, the “Plant response rating, Soybean” value [8, 30] was 100, the “Plant response rating, Corn” value [9, 29] was 60 and the “Plant response rating, Corn” value [9, 30] was 90. For the same compound, the “Plant response rating, Kochia” value [10, 29] was 90, the “Plant response rating, Kochia” value [10, 30] was 100 and the “Plant response rating, Blackgrass” value [11, 29] was 80. For the same compound, the “Plant response rating, Blackgrass” value [11, 30] was 80, the “Plant response rating, Kochia” value [12, 31] was 100 and the “Kochia plant response rating” value ([12]; Test C, 125 g ai/ha) was 100. The “Plant response rating, Wheat” value [13, 31] was 80, the “Wheat plant response rating” value ([13]; Test C, 125 g ai/ha) was 80 and the “Plant response rating, Ragweed” value [14, 31] was 80. For the same compound, the “Ragweed plant response rating” value ([14]; Test C, 125 g ai/ha) was 30, the “Plant response rating, Corn” value [15, 31] was 50 and the “Corn plant response rating” value ([15]; Test C, 125 g ai/ha) was 20. The “Plant response rating, Barnyardgrass (Flood)” value [16] was 40, the “Plant response rating, Blackgrass” value [17, 31] was 90 and the “Blackgrass plant response rating” value ([17]; Test C, 125 g ai/ha) was 50. The “Plant response rating, Foxtail, Green” value [18, 31] was 100, the “Foxtail, Green plant response rating” value ([18]; Test C, 125 g ai/ha) was 100 and the “Plant response rating, Ducksalad (Flood)” value [19] was 50. The “Plant response rating, Foxtail, Green” value [20, 29] was 80, the “Plant response rating, Foxtail, Green” value [20, 30] was 90 and the “Barnyardgrass plant response rating” value ([21]; 125 g ai/ha) was 90. The “Plant response rating, Barnyardgrass” value [21, 31] was 100, the “Plant response rating, Ragweed” value [22, 29] was 70 and the “Plant response rating, Ragweed” value [22, 30] was 90. For the same compound, the “Plant response rating, Oat, Wild” value [23, 31] was 90, the “Oat, Wild plant response rating” value ([23]; Test C, 125 g ai/ha) was 30 and the “Plant response rating, Soybean” value [24, 31] was 90. For the same compound, the “Soybean plant response rating” value ([24]; Test C, 125 g ai/ha) was 50, the “Plant response rating, Wheat” value [25, 29] was 20 and the “Plant response rating, Wheat” value [25, 30] was 30. For the same compound, the “Plant response rating, Ryegrass, Italian” value [26, 29] was 60, the “Plant response rating, Ryegrass, Italian” value [26, 30] was 80 and the “Plant response rating, Rice (Flood)” value [27] was 45. For the same compound, the “Plant response rating, Sedge, Umbrella (Flood)” value [28] was 75.

In the case of `Cc1cccc2c1O[C@@H](C)CN2C(=O)c1cccc(-n2cnc(N(C)S(C)(=O)=O)n2)c1` [Compound 299], the “Plant response rating, Oat, Wild” value [1, 29] is reported as 20, the “Plant response rating, Oat, Wild” value [1, 32] is reported as 60 and the “Plant response rating, Galium” value [2, 29] is reported as 80. The “Plant response rating, Galium” value [2, 32] was 90, the “Plant response rating, Horseweed” value [3, 29] was 10 and the “Plant response rating, Horseweed” value [3, 32] was 30. The “Pigweed, Palmer plant response rating” value ([4]; 500 g ai/ha) was 90, the “Pigweed, Palmer plant response rating” value ([4]; Test C, 125 g ai/ha) was 50 and the “Plant response rating, Barnyardgrass” value [5, 29] was 10. The “Plant response rating, Barnyardgrass” value [5, 32] was 50, the “Plant response rating, Pigweed, Palmer” value [6, 29] was 40 and the “Plant response rating, Pigweed, Palmer” value [6, 32] was 60. The “Ryegrass, Italian plant response rating” value ([7]; 500 g ai/ha) was 90, the “Ryegrass, Italian plant response rating” value ([7]; Test C, 125 g ai/ha) was 70 and the “Plant response rating, Soybean” value [8, 29] was 60. The “Plant response rating, Soybean” value [8, 32] was 100, the “Plant response rating, Corn” value [9, 29] was 10 and the “Plant response rating, Corn” value [9, 32] was 20. The “Plant response rating, Kochia” value [10, 29] was 10, the “Plant response rating, Kochia” value [10, 32] was 70 and the “Plant response rating, Blackgrass” value [11, 29] was 20. The “Plant response rating, Blackgrass” value [11, 32] was 90, the “Kochia plant response rating” value ([12]; 500 g ai/ha) was 80 and the “Kochia plant response rating” value ([12]; Test C, 125 g ai/ha) was 0. For the same compound, the “Wheat plant response rating” value ([13]; 500 g ai/ha) was 30, the “Wheat plant response rating” value ([13]; Test C, 125 g ai/ha) was 0 and the “Ragweed plant response rating” value ([14]; 500 g ai/ha) was 100. The “Ragweed plant response rating” value ([14]; Test C, 125 g ai/ha) was 70, the “Corn plant response rating” value ([15]; 500 g ai/ha) was 30 and the “Corn plant response rating” value ([15]; Test C, 125 g ai/ha) was 0. The “Plant response rating, Barnyardgrass (Flood)” value [16] was 0, the “Blackgrass plant response rating” value ([17]; 500 g ai/ha) was 70 and the “Blackgrass plant response rating” value ([17]; Test C, 125 g ai/ha) was 30. For the same compound, the “Foxtail, Green plant response rating” value ([18]; 500 g ai/ha) was 100, the “Foxtail, Green plant response rating” value ([18]; Test C, 125 g ai/ha) was 60 and the “Plant response rating, Ducksalad (Flood)” value [19] was 95. For the same compound, the “Plant response rating, Foxtail, Green” value [20, 29] was 10, the “Plant response rating, Foxtail, Green” value [20, 32] was 40 and the “Barnyardgrass plant response rating” value ([21]; 500 g ai/ha) was 80. For the same compound, the “Barnyardgrass plant response rating” value ([21]; Test C, 125 g ai/ha) was 10, the “Plant response rating, Ragweed” value [22, 29] was 0 and the “Plant response rating, Ragweed” value [22, 32] was 0. The “Oat, Wild plant response rating” value ([23]; 500 g ai/ha) was 90, the “Oat, Wild plant response rating” value ([23]; Test C, 125 g ai/ha) was 0 and the “Soybean plant response rating” value ([24]; 500 g ai/ha) was 0. For the same compound, the “Soybean plant response rating” value ([24]; Test C, 125 g ai/ha) was 0, the “Plant response rating, Wheat” value [25, 29] was 20 and the “Plant response rating, Wheat” value [25, 32] was 40. For the same compound, the “Plant response rating, Ryegrass, Italian” value [26, 29] was 70, the “Plant response rating, Ryegrass, Italian” value [26, 32] was 90 and the “Plant response rating, Rice (Flood)” value [27] was 0. For the same compound, the “Plant response rating, Sedge, Umbrella (Flood)” value [28] was 25.
